Experimental data from patent US20160289651A1, “ULK1 COMPOSITIONS, INHIBITORS, SCREENING AND METHODS OF USE” (Salk Institute for Biological Studies, priority 2009, published 2016).
“Also recorded” adds a separate entry of the source.

Assays:
[1] = test system: endogenous ULK1; assay: Immunoblot of endogenous ULK1 P-Ser555 in primary murine embryonic fibroblasts (MEFs); assay type: cell-based; details: wild-type vs AMPK-deficient, 2 mM AICAR for 1 h
[2] = target: myc-tagged wild-type raptor (UniProt Q8N122)
[3] = test system: T1, myc-tagged catalytically inactive (KI: K46I) ULK1
T1 sequence: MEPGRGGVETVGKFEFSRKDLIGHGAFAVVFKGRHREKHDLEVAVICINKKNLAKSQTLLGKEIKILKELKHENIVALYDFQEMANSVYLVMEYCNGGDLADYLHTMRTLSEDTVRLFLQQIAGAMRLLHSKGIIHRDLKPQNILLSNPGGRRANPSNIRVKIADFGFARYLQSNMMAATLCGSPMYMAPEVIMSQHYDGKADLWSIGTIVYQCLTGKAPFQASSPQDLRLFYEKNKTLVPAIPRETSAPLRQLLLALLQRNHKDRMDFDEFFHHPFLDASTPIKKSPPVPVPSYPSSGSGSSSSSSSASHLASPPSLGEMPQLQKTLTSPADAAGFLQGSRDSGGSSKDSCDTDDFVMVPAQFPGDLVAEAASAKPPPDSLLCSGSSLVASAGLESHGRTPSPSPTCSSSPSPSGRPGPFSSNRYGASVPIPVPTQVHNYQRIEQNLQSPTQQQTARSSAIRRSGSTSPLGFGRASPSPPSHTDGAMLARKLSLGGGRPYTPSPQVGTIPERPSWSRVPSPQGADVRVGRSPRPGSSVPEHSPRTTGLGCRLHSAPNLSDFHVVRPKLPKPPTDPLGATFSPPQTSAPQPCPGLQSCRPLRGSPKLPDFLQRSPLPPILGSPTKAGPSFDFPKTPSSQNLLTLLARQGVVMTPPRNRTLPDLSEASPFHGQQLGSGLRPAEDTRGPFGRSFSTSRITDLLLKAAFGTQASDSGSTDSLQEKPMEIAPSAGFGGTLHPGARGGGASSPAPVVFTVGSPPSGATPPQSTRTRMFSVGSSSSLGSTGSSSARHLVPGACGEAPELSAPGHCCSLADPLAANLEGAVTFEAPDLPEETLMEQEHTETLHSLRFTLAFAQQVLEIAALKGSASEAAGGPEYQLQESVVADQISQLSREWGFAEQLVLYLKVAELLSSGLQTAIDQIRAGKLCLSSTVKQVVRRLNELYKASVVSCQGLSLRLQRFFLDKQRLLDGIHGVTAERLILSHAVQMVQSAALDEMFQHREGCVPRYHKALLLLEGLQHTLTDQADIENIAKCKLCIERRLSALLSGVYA

[4] = test system: endogenous ULK1; assay: Immunoblot of endogenous ULK1 Ser555 phosphorylation in primary murine hepatocytes; assay type: cell-based; details: wild-type vs AMPK-deficient, 2 mM metformin for 2 h
Description: Data shown as mean+/−SEM. * p<0.01 (B) Primary hepatocytes derived from ULK1^+/+ or ULK1^+/− mice or AMPKa1^−/− a2^L/+ or AMPKa1^−/− a2^L/L as described in methods were placed in media containing 2 mM metformin (met) or vehicle (veh) for 2 h. Lysates were immunoblotted with the indicated antibodies.
Primary hepatocytes were isolated. Briefly, livers were perfused with Hank's balanced salt solution (HESS, KCI, 5.4 mM; KH2PO4, 0.45 mM; NaCl, 138 mM; NaHCO2, 4.2 mM; Na2HPO4, 0.34 mM; glucose, 5.5 mM; HEPES, 1 M; EGTA, 50 mM; CaCl2, 50 mM; pH 7.4). Livers were washed at a rate of 5 ml/min using the portal vein before collagenase (0.025%) was added. Cell viability was assessed by the trypan blue exclusion test and was always higher than 60%. […]
Cell lysis, immunoprecipitations, and mammalian autophagy analysis. […] Immunoprecipitated proteins were denatured by the addition of 20 pl of sample buffer and boiling for 5 minutes, resolved by 8%-16% SDSPAGE, and analyzed by immunoblottina as described. […] Quantification of westerns blots was achieved using Kodak Multi Gage software and normalizing to the appropriate loading control (actin when comparing p62 or LC3, or total protein level when comparing phospho-specific antibodies). […]

[5] = test system: ULK1; assay: Immunoblot with phospho-specific antibodies against ULK1 Ser467 and Ser555 in transfected HEK293T cells; assay type: cell-based, human; details: HEK293T cells with myc-tagged ULK1, 1 mM phenformin for 1 h vs vehicle
Description: FIGS. 1A-1F show ULK1 is a conserved substrate of AMPK. (A) Clustal alignment of four conserved sites in ULK1 and two sites in ULK2 matching the optimal AMPK substrate motif. (B) ULK1 and GST or GST-14-3-3 expression vectors were transfected into human embryonic kidney (HEK)293T cells, and placed in media containing […] STO-609 (STO), vehicle (veh), or 5 mM phenformin (Phen) for 1 h. Cell lysates and GST pulldowns were immunoblotted as indicated. […] (D) HEK293T cells transfected with myc-tagged wild-type ULK1 or indicated Serine-to-alanine ULK1 mutants were treated with either vehicle or 1 mM phenformin for 1 h, or were co-transfected with a constitutively active AMPKα1 (aa1-312) mammalian expression vector (11). Proteins from lysates were immunoblotted with phospho-specific antibodies as indicated. […] Phosphorylation of myc-ULK1 detected by immunoblotting with indicated phospho-specific antibodies. […]
Cell lysis, immunoprecipitations, and mammalian autophagy analysis. […] Immunoprecipitated proteins were denatured by the addition of […] of sample buffer and boiling for 5 minutes, resolved by 8%-16% SDSPAGE, and analyzed by immunoblottina as described. […] Quantification of westerns blots was achieved using Kodak Multi Gage software and normalizing to the appropriate loading control (actin when comparing p62 or LC3, or total protein level when comparing phospho-specific antibodies). […]

[6] = test system: ULK1; assay: Tandem mass spectrometry (LC/MS/MS) of phosphorylation sites on myc-ULK1 from HEK293T cells; assay type: cell-based, human
Description: FIG. 7A is a diagram of all LC/MS/MS identified in vivo phosphorylation sites in human ULK1. Myc-ULK1 was transfected into human embryonic kidney (HEK)-293T cells, treated with 5 mM phenformin to reduce cellular ATP for 1 hour and immunoprecipitated with anti myc antibody. The IP was run out on SDS PAGE, stained with coomassie, and the band corresponding to myc-ULK1 was cut out, and isolated and subjected to tryptic digest and LC/MS/MS analysis. Three indicated sites matching the AMPK substrate motif were identified, all mapping to the serine-rich unstructured region between the N-terminal kinase domain and the conserved C-terminus that mediates ULK1 binding to its subunits Atg13 and FIP200.
FIG. 7B is a bar graph of quantitative mass spec spectrometry (MS/MS TIC ratio quantification) data showing that tryptic peptides containing Phospho5er555 and Phospho-5er637 of ULK1 are induced by treatment of HEK293T cells with 5 mM phenformin for 1 h.
Mass Spectrometry. Myc-ULK1 overexpressed in HEK293T cells was treated with vehicle or 5 mM phenformin for 1 hour, IP'd with anti myc antibody (Cell Signaling), run out on SDS-PAGE gel and coomassie stained. […] Peptide ions from AMPK predicted phosphorylation sites were also targeted in MS/MS mode for quantitative analyses. […]
Relative Quantification of Phosphorylation Sites. […]

Chain of myc-tagged wild-type raptor (Q8N122 whole entry, looked up): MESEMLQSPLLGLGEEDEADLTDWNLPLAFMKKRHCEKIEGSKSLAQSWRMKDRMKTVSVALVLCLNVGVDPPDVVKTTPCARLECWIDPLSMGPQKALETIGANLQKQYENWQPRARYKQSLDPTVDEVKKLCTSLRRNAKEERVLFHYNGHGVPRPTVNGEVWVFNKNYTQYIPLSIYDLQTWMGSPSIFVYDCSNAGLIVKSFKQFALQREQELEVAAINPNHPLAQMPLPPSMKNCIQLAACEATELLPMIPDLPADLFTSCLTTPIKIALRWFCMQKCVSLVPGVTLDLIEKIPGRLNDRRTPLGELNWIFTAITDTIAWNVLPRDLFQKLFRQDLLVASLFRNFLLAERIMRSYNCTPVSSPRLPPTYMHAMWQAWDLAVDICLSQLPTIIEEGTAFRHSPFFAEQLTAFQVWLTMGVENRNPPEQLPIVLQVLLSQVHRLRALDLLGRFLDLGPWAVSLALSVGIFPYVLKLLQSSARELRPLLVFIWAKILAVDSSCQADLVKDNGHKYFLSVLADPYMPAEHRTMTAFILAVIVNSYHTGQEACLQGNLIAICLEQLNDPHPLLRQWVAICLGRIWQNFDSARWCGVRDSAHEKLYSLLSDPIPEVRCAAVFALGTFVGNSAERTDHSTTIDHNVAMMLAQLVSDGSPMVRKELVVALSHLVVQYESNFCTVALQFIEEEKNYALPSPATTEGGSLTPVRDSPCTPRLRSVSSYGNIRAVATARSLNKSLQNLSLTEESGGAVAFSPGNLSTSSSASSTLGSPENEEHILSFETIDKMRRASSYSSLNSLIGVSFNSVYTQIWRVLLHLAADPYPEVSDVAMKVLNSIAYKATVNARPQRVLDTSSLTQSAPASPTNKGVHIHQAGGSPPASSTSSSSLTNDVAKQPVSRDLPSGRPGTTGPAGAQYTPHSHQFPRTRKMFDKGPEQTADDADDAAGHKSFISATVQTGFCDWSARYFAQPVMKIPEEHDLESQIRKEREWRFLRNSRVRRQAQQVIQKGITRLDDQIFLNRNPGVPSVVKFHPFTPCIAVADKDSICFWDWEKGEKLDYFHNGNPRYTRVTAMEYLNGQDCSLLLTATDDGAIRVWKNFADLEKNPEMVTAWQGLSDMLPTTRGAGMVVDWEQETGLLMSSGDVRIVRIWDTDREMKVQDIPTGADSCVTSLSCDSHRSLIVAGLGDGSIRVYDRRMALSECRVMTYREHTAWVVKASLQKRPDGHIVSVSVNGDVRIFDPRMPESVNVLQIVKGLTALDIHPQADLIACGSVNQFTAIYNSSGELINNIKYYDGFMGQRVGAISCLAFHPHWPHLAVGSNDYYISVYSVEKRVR

Compound: NC(=O)c1ncn([C@@H]2O[C@H](CO)[C@@H](O)[C@H]2O)c1N [AICAR]
- phosphorylation of endogenous ULK1 on Ser555 [1]: phosphorylation of endogenous ULK1 was observed on Ser555 in an AMPK-dependent manner; also recorded: phosphorylated on Ser555 in an AMPK-dependent manner

Compound: purified active AMPK heterotrimer (partially purified rat liver, Millipore cat #14-305)
- in vitro kinase assay, 32P incorporation [2]: AMPK phosphorylated ULK1 to a greater extent than an established substrate, Raptor
- in vitro kinase assay, 32P incorporation [3]: AMPK phosphorylated ULK1 to a greater extent than an established substrate, Raptor

Compound: CN(C)C(=N)N=C(N)N [metformin]
- phosphorylation of endogenous ULK1 Ser555 [4]: Increased phosphorylation of endogenous ULK1 Ser555 was observed in wild-type but not AMPK-deficient hepatocytes

Compound: [H]/N=C(/N)N/C(=N/[H])NCCc1ccccc1 [phenformin]
- phosphorylation of ULK1 Ser467 and Ser555 (phospho-specific antibodies) [5]: Phosphorylation of both sites was induced
- tryptic peptides containing Phospho-Ser555 and Phospho-Ser637 of ULK1, quantitative mass spectrometry (MS/MS TIC ratio quantification) ([6]; 5 mM phenformin for 1 h): induced
- phosphorylation of ULK1 candidate AMPK sites Ser555, Thr574, Ser637 detected by tandem mass spectrometry ([6]; epitope-tagged ULK1, with or without 5 mM phenformin for 1 hour): all three were phosphorylated only after phenformin treatment
